Assay results: patent US11285127B2, “Compositions and methods for lowering triglycerides without raising LDL-C levels in a subject on concomitant statin therapy” (Amarin Pharmaceuticals Ireland Limited, priority 2013, dated 2022)

Key:
Type in all cases: in vivo, human
[1] = tested on: patients with fasting triglyceride levels >200 mg/dl and <500 mg/dl despite statin therapy; assay: 12-week study: apolipoproteins (Apo A-1, Apo B, ratio) and lipoprotein(a); conditions: for Apo A1 Week 12 EP Median (IQR) / Apo B Week 12 EP Median (IQR) / Apo B/Apo A1 ratio Week 12 EP Median (IQR) / Lp (a) Week 12 EP Median (IQR) / Apo A1 Percent change from Baseline Median (IQR) / Apo B Percent change from Baseline Median (IQR) / Apo B/Apo A1 ratio Percent change from Baseline Median (IQR) / Lp (a) Percent change from Baseline Median (IQR) / Apo A1 Difference from placebo Estimated median / Apo B Difference from placebo Estimated median / Apo B/Apo A1 ratio Difference from placebo Estimated median / Lp (a) Difference from placebo Estimated median: MITT; for Apo A1 Percent change from Baseline Median (IQR) / Apo B Percent change from Baseline Median (IQR) / Apo B/Apo A1 ratio Percent change from Baseline Median (IQR) / Lp (a) Percent change from Baseline Median (IQR): Week 12 endpoint; for Apo A1 Difference from placebo Estimated median / Apo B Difference from placebo Estimated median / Apo B/Apo A1 ratio Difference from placebo Estimated median / Lp (a) Difference from placebo Estimated median: percent change from baseline to Week 12 endpoint
Excerpt: (§1) Parameters (a)-(z) can be measured in accordance with any clinically acceptable methodology. For example, triglycerides, total cholesterol, HDL-C and fasting blood sugar can be sample from serum and analyzed using standard photometry techniques. VLDL-TG, LDL-C and VLDL-C can be calculated or determined using serum lipoprotein fractionation by preparative ultracentrifugation and subsequent quantitative analysis by refractometry or by analytic ultracentrifugal methodology. Apo A1, Apo B and hsCRP can be determined from serum using standard nephelometry techniques. Lipoprotein (a) can be determined from serum using standard turbidimetric immunoassay techniques. LDL particle number and particle size can be determined using nuclear magnetic resonance (NMR) spectrometry. Remnants lipoproteins and LDL-phospholipase A2 can be determined from EDTA plasma or serum and serum, respectively, using enzymatic immunoseparation techniques. Oxidized LDL, intercellular adhesion molecule-1 and interleukin-2 levels can be determined from serum using standard enzyme immunoassay techniques. These techniques are described in detail in standard textbooks, for example Tietz Fundamentals of Clinical Chemistry, 6th Ed. (Burtis, Ashwood and Borter Eds.), WB Saunders Company.
(§2) A multi-center, placebo-controlled, randomized, double-blind, 12-week study was performed to evaluate the efficacy and safety of >96% E-EPA in patients with fasting triglyceride levels >200 mg/dl and <500 mg/dl despite statin therapy (the mean of two qualifying entry values needed to be >185 mg/dl and at least one of the values needed to be >200 mg/dl). The primary objective of the study was to determine the efficacy of >96% E-EPA 2 g daily and 4 g daily, compared to placebo, in lowering fasting TG levels in patients with high risk for cardiovascular disease and with fasting TG levels 200 mg/dl and <500 mg/dl, despite treatment to LDL-C goal on statin therapy.
The primary efficacy variable for the double-blind treatment period was percent change in TG from baseline to Week 12 endpoint. The secondary efficacy variables for the double-blind treatment period included the following: • Percent changes in total cholesterol (TC), high-density lipoprotein cholesterol (HDL-C), LDL-C, calculated non-HDL-C, and very low-density lipoprotein cholesterol (VLDL-C) from baseline to Week 12 endpoint; • Percent change in very low-density lipoprotein TG from baseline to Week 12; • Percent changes in apolipoprotein A-I (Apo A-1), apolipoprotein B (Apo B), and Apo A-1/Apo B ratio from baseline to Week 12; • Percent changes in lipoprotein(a) from baseline to Week 12; • Percent changes in LDL particle number and size, measured by nuclear magnetic resonance, from baseline to Week 12; • Percent change in remnant-like particle cholesterol from baseline to Week 12; • Percent change in oxidized LDL from baseline to Week 12; • Changes in FPG and HbA1c from baseline to Week 12; • Change in insulin resistance, as assessed by the homeostasis model index insulin resistance, from baseline to Week 12; • Percent change in lipoprotein associated phospholipase A2 (Lp-PLA2) from baseline to Week 12; • Change in intracellular adhesion molecule-1 from baseline to Week 12; • Change in interleukin-2 from baseline to Week 12; • Change in plasminogen activator inhibitor-1 from baseline to Week 12. Note: this parameter will only be collected at sites with proper storage conditions; • Change in hsCRP from baseline to Week 12; and • Change in plasma concentration and red blood cell membrane content of fatty acid from baseline to Week 12 including EPA, docosapentaenoic acid (DPA), docosahexaenoic acid (DHA), arachidonic acid (AA), dihomo-γ-linolenic acid (DGLA), the ratio of EPA/AA, ratio of oleic acid/stearic acid (OA/SA), and the ratio of total omega-3 acids over total omega-6 acids. […]

[2] = tested on: patients with fasting triglyceride levels >200 mg/dl and <500 mg/dl despite statin therapy; assay: 12-week study: lipoprotein associated phospholipase A2 (Lp-PLA2); conditions: MITT; for Lp-PLA2 Percent change from Baseline Median (IQR): Week 12 endpoint; for Lp-PLA2 Difference from placebo Estimated median: percent change from baseline to Week 12 endpoint
Excerpt: as §1, §2
(§3) The secondary objectives of this study were the following: • 1. To determine the safety and tolerability of >96% E-EPA 2 g daily and 4 g daily; • 2. To determine the effect of >96% E-EPA on lipid and apolipoprotein profiles including total cholesterol (TC), non-high-density lipoprotein cholesterol (non-HDL-C), low density lipoprotein cholesterol (LDL-C), high density lipoprotein cholesterol (HDL-C), and […]; • 3. To determine the effect of >96% E-EPA on lipoprotein associated phospholipase A2 (Lp-PLA2) from baseline to week 12; • 4. To determine the effect of >96% E-EPA on low-density lipoprotein (LDL) particle number and size; • 5. To determine the effect of >96% E-EPA on oxidized LDL; • 6. To determine the effect of >96% E-EPA on fasting plasma glucose (FPG) and hemoglobin A1c (HbA1c); • 7. To determine the effect of >96% E-EPA on insulin resistance; • 8. To determine the effect of >96% E-EPA on high-sensitivity C-reactive protein (hsCRP); • 9. To determine the effects of >96% E-EPA 2 g daily and 4 g daily on the incorporation of fatty acids into red blood cell membranes and into plasma phospholipids; • 10. To explore the relationship between baseline fasting TG levels and the reduction in fasting TG levels; and • 11. To explore the relationship between changes of fatty acid concentrations in plasma and red blood cell membranes, and the reduction in fasting TG levels.
(§4) The primary efficacy variable for the double-blind treatment period was percent change in TG from baseline to Week 12 endpoint. […]

[3] = tested on: patients with fasting triglyceride levels >200 mg/dl and <500 mg/dl despite statin therapy; assay: 12-week study: oxidized LDL; conditions: MITT; for Oxidized LDL Percent change from Baseline Median (IQR): Week 12 endpoint; for Oxidized LDL Difference from placebo Estimated median: percent change from baseline to Week 12 endpoint
Excerpt: as §1, §2, §3, §4

[4] = IPE 4 g/day (n = 216), 12 weeks, patients with lipoprotein data

Compound: CC/C=C\C/C=C\C/C=C\C/C=C\C/C=C\CCCC(=O)OCC [AMR101, ethyl eicosapentaenoate]
- Apo A1 Week 12 EP Median (IQR) ([1]; AMR101 2 g/d + statin): 141.0 (26.0) mg/dL
- Apo B Week 12 EP Median (IQR) ([1]; AMR101 2 g/d + statin): 95.0 (24.0) mg/dL
- Apo B/Apo A1 ratio Week 12 EP Median (IQR) ([1]; AMR101 2 g/d + statin): 0.7 (0.2)
- Lp (a) Week 12 EP Median (IQR) ([1]; AMR101 2 g/d + statin): 12.0 (33.0) mg/dL
- Apo A1 Percent change from Baseline Median (IQR) ([1]; AMR101 2 g/d + statin): 2.0 (13.0) %
- Apo B Percent change from Baseline Median (IQR) ([1]; AMR101 2 g/d + statin): 1.6 (20.7) %
- Apo B/Apo A1 ratio Percent change from Baseline Median (IQR) ([1]; AMR101 2 g/d + statin): 0.1 (18.3) %
- Lp (a) Percent change from Baseline Median (IQR) ([1]; AMR101 2 g/d + statin): 0.0 (24.9) %
- Apo A1 Difference from placebo Estimated median ([1]; AMR101 2 g/d + statin): −1.7%
- Apo B Difference from placebo Estimated median ([1]; AMR101 2 g/d + statin): −3.8%
- Apo B/Apo A1 ratio Difference from placebo Estimated median ([1]; AMR101 2 g/d + statin): −2.0%
- Lp (a) Difference from placebo Estimated median ([1]; AMR101 2 g/d + statin): 0.0%
- Apo A1 Week 12 EP Median (IQR) ([1]; AMR101 4 g/d + statin): 137.0 (29.0) mg/dL
- Apo B Week 12 EP Median (IQR) ([1]; AMR101 4 g/d + statin): 90.0 (25.0) mg/dL
- Apo B/Apo A1 ratio Week 12 EP Median (IQR) ([1]; AMR101 4 g/d + statin): 0.7 (0.2)
- Lp (a) Week 12 EP Median (IQR) ([1]; AMR101 4 g/d + statin): 9.0 (31.0) mg/dL
- Apo A1 Percent change from Baseline Median (IQR) ([1]; AMR101 4 g/d + statin): −2.9 (12.6) %
- Apo B Percent change from Baseline Median (IQR) ([1]; AMR101 4 g/d + statin): −2.2 (16.4) %
- Apo B/Apo A1 ratio Percent change from Baseline Median (IQR) ([1]; AMR101 4 g/d + statin): −0.7 (20.3) %
- Lp (a) Percent change from Baseline Median (IQR) ([1]; AMR101 4 g/d + statin): 0.0 (10.0) %
- Apo A1 Difference from placebo Estimated median ([1]; AMR101 4 g/d + statin): −6.9%
- Apo B Difference from placebo Estimated median ([1]; AMR101 4 g/d + statin): −9.3%
- Apo B/Apo A1 ratio Difference from placebo Estimated median ([1]; AMR101 4 g/d + statin): −2.4%
- Lp (a) Difference from placebo Estimated median ([1]; AMR101 4 g/d + statin): 0.0%
- Apo-B, Change From Baseline, % (median) [1, 4]: −2.2%
- Apo-B, End of Treatment (median) [1, 4]: 90.0 mg/dL
- Apo-B, Median Change From Baseline IPE 4 g/day vs Placebo, % ([1]; IPE 4 g/day vs placebo, 12 weeks, Hodges-Lehmann median): −8.8%
- Lp-PLA2 Week 12 EP Median (IQR) ([2]; AMR101 2 g/d + statin): 183.5 (57.5) ng/mL
- Lp-PLA2 Percent change from Baseline Median (IQR) ([2]; AMR101 2 g/d + statin): −1.8 (23.1) %
- Lp-PLA2 Difference from placebo Estimated median ([2]; AMR101 2 g/d + statin): −8.0%
- Lp-PLA2 Week 12 EP Median (IQR) ([2]; AMR101 4 g/d + statin): 160.0 (57.0) ng/mL
- Lp-PLA2 Percent change from Baseline Median (IQR) ([2]; AMR101 4 g/d + statin): −12.8 (18.5) %
- Lp-PLA2 Difference from placebo Estimated median ([2]; AMR101 4 g/d + statin): −19.0%
- Oxidized LDL Week 12 EP Median (IQR) ([3]; AMR101 2 g/d + statin): 55.8 (22.8) U/L
- Oxidized LDL Percent change from Baseline Median (IQR) ([3]; AMR101 2 g/d + statin): 2.6 (18.3) %
- Oxidized LDL Difference from placebo Estimated median ([3]; AMR101 2 g/d + statin): −5.8%
- Oxidized LDL Week 12 EP Median (IQR) ([3]; AMR101 4 g/d + statin): 51.4 (17.5) U/L
- Oxidized LDL Percent change from Baseline Median (IQR) ([3]; AMR101 4 g/d + statin): −4.8 (19.6) %
- Oxidized LDL Difference from placebo Estimated median ([3]; AMR101 4 g/d + statin): −13.3%
